Experimental data reported in US9862693B2, “Compounds and methods of treating cancer” (The Regents of the University of California, priority 2012, dated 2018).
Entries after “also recorded” stand apart in the source; their conditions may differ. Where a name gives a salt, the structure may show the parent alone.

Tests used:
HCC1806 = assay: MTS cell number assay (CellTiter 96), TNBC cells; assay type: cell-based; details: 1 mM, 72 hours, MTS method
Protocol: (§1) FIGS. 2A-2D. Metformin analogues inhibit growth/survival of triple negative breast cancer cells. MDA-MB-231 (FIG. 2A), HCC38 (FIG. 2B), HCC1937 (FIG. 2C) and HCC1806 (FIG. 2D) cells were cultured in medium containing 1% fetal bovine serum and increasing concentrations of metformin and analogues JD001-JD009 (0.1, 1 and 5 mM). After 3 days, MTS assay was performed. The percentage of surviving cells relative to controls, defined as 100% survival, was determined by the MTS assay.
(§2) Cells were incubated in the presence of vehicle, metformin or metformin analogues for 72 hours in their respective media. After treatment cell numbers were determined with the MTS method using the CellTiter 96 Aqueous Non-Radioactive Cell Proliferation Assay (Promega). Numbers express percentage of vehicle treated controls at 1 mM concentration metformin or metformin analogues (JD001-JD009). TNBC: Triple Negative Breast Cancer Cells, ER+BC: Estrogen receptor positive breast cancer.

HCC1937 = assay: MTS cell number assay (CellTiter 96), TNBC cells; assay type: cell-based; details: 1 mM, 72 hours, MTS method
Protocol: as §1, §2

HCC38 = assay: MTS cell number assay (CellTiter 96), TNBC cells; assay type: cell-based; details: 1 mM, 72 hours, MTS method
Protocol: as §1, §2

MDA-MB-231 = assay: MTS cell number assay (CellTiter 96), TNBC cells; assay type: cell-based; details: Homo sapiens, 1 mM, 72 hours, MTS method, read-out: Biodata TNBC MDA-MB-231, cell numbers as percentage of vehicle treated controls
Protocol: as §1, §2

MCF7 = assay: MTS cell number assay (CellTiter 96), ER+ breast cancer cells; assay type: cell-based; details: Homo sapiens, 1 mM, 72 hours, MTS method, read-out: ER+ BC MCF7, cell numbers as percentage of vehicle treated controls
Protocol: FIG. 1. Metformin analogues inhibit growth/survival of ER+ MCF7 breast cancer cells. MCF7 cells were cultured in medium containing different concentrations of metformin and analogues (0.1, 1 and 5 mM). After 3 days, the percentage of surviving cells relative to controls, defined as 100% survival, was determined by the MTS assay. Data represents three independent experiments.
Compounds described herein (e.g. metformin derivatives and/or analogues) were tested in human MCF-7 breast cancer cells, a standard ERalpha-positive model of breast malignancy (FIG. 1), and in four different cell lines classified as TNBC, including MDA-MB-231, HCC1937, HCC38 and HCC1806 (FIGS. 2A-2D). […] Experiments were also performed in: 1) a non-small cell lung cancer cell line that is known to be resistant to standard chemotherapy (A549); and 2) a melanoma-like cell model (MDA-MB-435). To find if analogues have effects on normal cells compounds were tested in two different types of cells, human umbilical vein endothelial cells (HUVEC) and human mammary epithelial cells (HMEC). The effects of metformin (MET) were compared with compounds JD001-JD009.
as §2

HMEC = assay: MTS cell number assay (CellTiter 96), normal cells; assay type: cell-based; details: Homo sapiens, 1 mM, 72 hours, MTS method, read-out: Biodata Normal HMEC, cell numbers as percentage of vehicle treated controls
Protocol: (§3) FIGS. 4A-4B. Effects of metformin and metformin analogues on normal cells. HMEC (FIG. 4A) and HUVEC (FIG. 4B) cells were plated in special media. After 24 hours, cells were treated with increasing concentrations of metformin and analogues JD001-JD009 (0.1, 1 and 5 mM). After 3 days, MTS assay was performed. Survival is expressed as percentage of vehicle treated control. Data represents at least two experiments.
(§4) The effects of compounds described herein (including embodiments) (e.g. metformin analogues) were determined on two types of normal nonmalignant human cells, human umbilical vein endothelial cells (HUVEC) and human mammary epithelial cells (HMEC). There were no significant biologic effects noted on exposure to the metformin analogues.
as §2

HUVEC = assay: MTS cell number assay (CellTiter 96), normal cells; assay type: cell-based; details: Homo sapiens, 1 mM, 72 hours, MTS method, read-out: Biodata Normal HUVEC, cell numbers as percentage of vehicle treated controls
Protocol: as §3, §4, §2

A549 = assay: MTS cell number assay (CellTiter 96), NSCLC cells; assay type: cell-based; details: Homo sapiens, 1 mM, 72 hours, MTS method, read-out: Biodata extra A549, cell numbers as percentage of vehicle treated controls
Protocol: (§5) FIGS. 3A-3B. Metformin analogues inhibit survival of non-small cell lung cancer (NSCLC) (FIG. 3A) and melanoma cell lines (FIG. 3B). A549 (NSCLC) and MDA-MB-435 (melanoma) cells were cultured in medium containing 1% fetal bovine serum and increasing concentrations of metformin (MET) and analogues JD001-JD007 (0.1, 1 and 5 mM). After 3 days, MTS assay was performed. Survival is expressed as percentage of control defined at 100%.
as §2

MDA-MB-435 = assay: MTS cell number assay (CellTiter 96), melanoma cells; assay type: cell-based; details: 1 mM, 72 hours, MTS method
Protocol: as §5, §2

MCF-7 cells = assay: Cell proliferation ELISA, BrdU colorimetric kit; assay type: cell-based, human; details: 0.1 mM and 1 mM, BrdU incorporation, 1% FBS, P<0.01
Protocol: FIGS. 6A-6C. […] Proliferation was assessed using cell proliferation ELISA, BrdU colorimetric kit (Roche). Cells were counted using a hemocytometer and plated. After 24 hrs, cells were treated with metformin and analogs JD003 and JD004 at 0.1 mM and 1 mM doses using phenol-red free medium with 1% FBS. After 48 hr, BrDU labeling solution was added and incubated for 24 h. Proliferation was assessed using BrDU incorporation by ELISA during DNA synthesis in proliferating cells. Data shown as % control (mean±SE) (n=3 experiments).
We hypothesize that metformin analogs can be prepared with enhanced anticancer activity and minimal non-target toxicity. […] Human pancreatic cancer cells PANC-1, were grown in DMEM with 2 mM glutamine, 1 mM sodium pyruvate, 100 units/mL penicillin, 100 μg/mL streptomycin and 10% FBS at 37 C in a humidified atmosphere with 10% CO2. Then, effects of treatment with metformin or analog JD003 on cell proliferation in vitro were tested. […] In contrast, minimal antiproliferative effects are detected in nonmalignant human epithelial cells. […]
Cell proliferation screening assays were done using cell proliferation ELISA, BrdU colorimetric kit (Roche). Cells were counted using a hemocytometer and plated in 96-well plates. […] Cell proliferation were quantitated based on measures of BrDU incorporation (by ELISA) during DNA synthesis in proliferating cells. […] Results were expressed as mean±SE. […]

SMILES: CON(C)C(=N)NC(=N)N [JD001, N-Methoxyl-N-methylbiguanide hydrochloride]
- Biodata TNBC HCC1806, cell numbers as percentage of vehicle treated controls (HCC1806): 80.1 percentage of vehicle treated controls
- Biodata TNBC HCC1937, cell numbers as percentage of vehicle treated controls (HCC1937): 68.9 percentage of vehicle treated controls
- Biodata TNBC HCC38, cell numbers as percentage of vehicle treated controls (HCC38): 102.5 percentage of vehicle treated controls
- viability at 1000 µM (MDA-MB-231): 92%
- viability at 1000 µM (MCF7): 82.3%
- viability at 1000 µM (HMEC): 101%
- viability at 1000 µM (HUVEC): 84.4%
- viability at 1000 µM (A549): 62.6%
- Biodata extra MDA-MB-435, cell numbers as percentage of vehicle treated controls (MDA-MB-435): 102.1 percentage of vehicle treated controls

SMILES: N=C(NC(=N)N1CCCCC1)N1CCCCC1 [JD002, N-(Imino(piperidin-1-yl)methyl)piperidine-1-carboximidamide hydrochloride]
- Biodata TNBC HCC1806, cell numbers as percentage of vehicle treated controls (HCC1806): 36.4 percentage of vehicle treated controls
- Biodata TNBC HCC1937, cell numbers as percentage of vehicle treated controls (HCC1937): 17.1 percentage of vehicle treated controls
- Biodata TNBC HCC38, cell numbers as percentage of vehicle treated controls (HCC38): 44.7 percentage of vehicle treated controls
- viability at 1000 µM (MDA-MB-231): 48.5%
- viability at 1000 µM (MCF7): 46.2%
- viability at 1000 µM (HMEC): 62.6%
- viability at 1000 µM (HUVEC): 70%
- viability at 1000 µM (A549): 4.6%
- Biodata extra MDA-MB-435, cell numbers as percentage of vehicle treated controls (MDA-MB-435): 39.8 percentage of vehicle treated controls

SMILES: CN1CCN(C(=N)NC(=N)N2CCN(C)CC2)CC1 [JD004, N-(Imino(4-methylpiperazin-1-yl)methyl)-4-methylpiperazine-1-carboximidamide hydro-chloride]
- Biodata TNBC HCC1937, cell numbers as percentage of vehicle treated controls (HCC1937): 64 percentage of vehicle treated controls
- viability at 1000 µM (MDA-MB-231): 89.2%
- viability at 1000 µM (MCF7): 84.4%
- viability at 1000 µM (HMEC): 113%
- viability at 1000 µM (HUVEC): 89.1%
- viability at 1000 µM (A549): 74.3%
- Biodata extra MDA-MB-435, cell numbers as percentage of vehicle treated controls (MDA-MB-435): 59.6 percentage of vehicle treated controls
- Blocking proliferation of MCF-7 cells compared with metformin (MCF-7 cells): more effective in blocking proliferation of MCF-7 cells; also recorded: enhanced antiproliferative activity in breast cancer cells as compared to metformin

SMILES: N=C(NC(=N)N1CCCC1)N1CCCCC1 [JD005, N-(Imino(pyrrolidin-1-yl)methyl)piperidine-1-carboximidamide hydrochloride]
- Biodata TNBC HCC1806, cell numbers as percentage of vehicle treated controls (HCC1806): 55.8 percentage of vehicle treated controls
- Biodata TNBC HCC1937, cell numbers as percentage of vehicle treated controls (HCC1937): 15.7 percentage of vehicle treated controls
- Biodata TNBC HCC38, cell numbers as percentage of vehicle treated controls (HCC38): 43.4 percentage of vehicle treated controls
- viability at 1000 µM (MDA-MB-231): 46.6%
- viability at 1000 µM (MCF7): 58.2%
- viability at 1000 µM (HMEC): 67.6%
- viability at 1000 µM (HUVEC): 54.6%
- viability at 1000 µM (A549): 32.4%
- Biodata extra MDA-MB-435, cell numbers as percentage of vehicle treated controls (MDA-MB-435): 42.2 percentage of vehicle treated controls

SMILES: N=C(NC(=N)N1CCCC1)N1CCCC1 [JD006, N-(Imino(pyrrolidin-1-yl)methyl)pyrrolidine-1-carboximidamide hydrochloride]
- viability at 1000 µM (MCF7): 59.7%
- viability at 1000 µM (HMEC): 96.6%
- viability at 1000 µM (HUVEC): 113%
- viability at 1000 µM (A549): 59.7%

SMILES: CN(C)C(=N)NC(=N)N1CCOCC1 [JD007, N—(N,N-Dimethylcarbamimidoyl)morpholine-4-carboximidamide hydrochloride]
- Biodata TNBC HCC1806, cell numbers as percentage of vehicle treated controls (HCC1806): 65.7 percentage of vehicle treated controls
- Biodata TNBC HCC38, cell numbers as percentage of vehicle treated controls (HCC38): 83.6 percentage of vehicle treated controls
- viability at 1000 µM (MDA-MB-231): 64.3%
- viability at 1000 µM (MCF7): 65.8%
- viability at 1000 µM (HMEC): 105%
- viability at 1000 µM (HUVEC): 112%
- viability at 1000 µM (A549): 82.3%

SMILES: CCCN(C)C(=N)NC(=N)N [JD008, N-Methyl-N-propylbiguanide hydrochloride]
- Biodata TNBC HCC1806, cell numbers as percentage of vehicle treated controls (HCC1806): 52.7 percentage of vehicle treated controls
- Biodata TNBC HCC38, cell numbers as percentage of vehicle treated controls (HCC38): 55.6 percentage of vehicle treated controls
- viability at 1000 µM (MDA-MB-231): 38.6%
- viability at 1000 µM (MCF7): 52.2%
- viability at 1000 µM (HMEC): 70.9%
- viability at 1000 µM (HUVEC): 37.7%

SMILES: CC1CCN(C(=N)NC(=N)N)CC1 [JD009, N-Carbamimidoyl-4-methylpiperidine-1-carboximidamide, hydrochloride]
- Biodata TNBC HCC1806, cell numbers as percentage of vehicle treated controls (HCC1806): 7.3 percentage of vehicle treated controls
- Biodata TNBC HCC38, cell numbers as percentage of vehicle treated controls (HCC38): 0 percentage of vehicle treated controls
- viability at 1000 µM (MDA-MB-231): 0.3%
- viability at 1000 µM (MCF7): 52.7%
- viability at 1000 µM (HMEC): 48.8%
- viability at 1000 µM (HUVEC): 39.5%
